Key:
Assay in all cases: radiometric filter-binding kinase assay, Kinase HotSpot
Conditions in all cases: compound 0.5 µM; ATP 10 µM
CDK6 CCND3 (human) = CDK6 CCND3 (human) (UniProt P30281+Q00534)
NEK9 (human) = NEK9 (human) (UniProt Q8TD19)
PIM1 (human) = PIM1 (human) (UniProt P11309)
MARK3 (human) = MARK3 (human) (UniProt P27448)
SGK3 (human) = SGK3 (human) (UniProt Q96BR1)
PTK2B (human) = PTK2B (human) (UniProt Q14289)
HIPK1 (human) = HIPK1 (human) (UniProt Q86Z02)
CAMK2A (human) = CAMK2A (human) (UniProt Q9UQM7)
MLTK (human) = MLTK (human) (UniProt Q9NYL2)
SGK2 (human) = SGK2 (human) (UniProt Q9HBY8)
MAP3K2 (human) = MAP3K2 (human) (UniProt Q9Y2U5)
STK11 (human) = STK11 (human) (UniProt Q15831)
Chain of STK11 (human) (Q15831 whole entry, looked up): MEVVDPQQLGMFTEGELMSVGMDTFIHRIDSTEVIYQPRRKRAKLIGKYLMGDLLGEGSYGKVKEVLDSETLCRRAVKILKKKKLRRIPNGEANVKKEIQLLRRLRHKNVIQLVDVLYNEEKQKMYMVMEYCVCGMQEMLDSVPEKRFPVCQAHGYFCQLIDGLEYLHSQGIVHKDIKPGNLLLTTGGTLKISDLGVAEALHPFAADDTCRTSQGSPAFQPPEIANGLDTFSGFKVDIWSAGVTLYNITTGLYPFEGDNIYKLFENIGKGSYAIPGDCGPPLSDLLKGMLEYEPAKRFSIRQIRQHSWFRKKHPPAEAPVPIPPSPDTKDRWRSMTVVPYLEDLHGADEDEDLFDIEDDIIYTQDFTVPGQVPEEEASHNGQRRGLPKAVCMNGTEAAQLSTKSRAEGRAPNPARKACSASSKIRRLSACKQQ

KDR (human) = KDR (human) (UniProt P35968)
FGFR1 (human) = FGFR1 (human) (UniProt P11362)
JAK3 JH1 JH2 (human) = JAK3 JH1 JH2 (human) (UniProt P52333)
TEC (human) = TEC (human) (UniProt P42680)
INSRR (human) = INSRR (human) (UniProt P14616)
PRKACA (human) = PRKACA (human) (UniProt P17612)
WNK3 (human) = WNK3 (human) (UniProt Q9BYP7)
CSNK1D (human) = CSNK1D (human) (UniProt P48730)
PRKD1 (human) = PRKD1 (human) (UniProt Q15139)
MYLK (human) = MYLK (human) (UniProt Q15746)
EPHA5 (human) = EPHA5 (human) (UniProt P54756)
PASK (human) = PASK (human) (UniProt Q96RG2)
Chain of PASK (human) (Q96RG2 whole entry, looked up): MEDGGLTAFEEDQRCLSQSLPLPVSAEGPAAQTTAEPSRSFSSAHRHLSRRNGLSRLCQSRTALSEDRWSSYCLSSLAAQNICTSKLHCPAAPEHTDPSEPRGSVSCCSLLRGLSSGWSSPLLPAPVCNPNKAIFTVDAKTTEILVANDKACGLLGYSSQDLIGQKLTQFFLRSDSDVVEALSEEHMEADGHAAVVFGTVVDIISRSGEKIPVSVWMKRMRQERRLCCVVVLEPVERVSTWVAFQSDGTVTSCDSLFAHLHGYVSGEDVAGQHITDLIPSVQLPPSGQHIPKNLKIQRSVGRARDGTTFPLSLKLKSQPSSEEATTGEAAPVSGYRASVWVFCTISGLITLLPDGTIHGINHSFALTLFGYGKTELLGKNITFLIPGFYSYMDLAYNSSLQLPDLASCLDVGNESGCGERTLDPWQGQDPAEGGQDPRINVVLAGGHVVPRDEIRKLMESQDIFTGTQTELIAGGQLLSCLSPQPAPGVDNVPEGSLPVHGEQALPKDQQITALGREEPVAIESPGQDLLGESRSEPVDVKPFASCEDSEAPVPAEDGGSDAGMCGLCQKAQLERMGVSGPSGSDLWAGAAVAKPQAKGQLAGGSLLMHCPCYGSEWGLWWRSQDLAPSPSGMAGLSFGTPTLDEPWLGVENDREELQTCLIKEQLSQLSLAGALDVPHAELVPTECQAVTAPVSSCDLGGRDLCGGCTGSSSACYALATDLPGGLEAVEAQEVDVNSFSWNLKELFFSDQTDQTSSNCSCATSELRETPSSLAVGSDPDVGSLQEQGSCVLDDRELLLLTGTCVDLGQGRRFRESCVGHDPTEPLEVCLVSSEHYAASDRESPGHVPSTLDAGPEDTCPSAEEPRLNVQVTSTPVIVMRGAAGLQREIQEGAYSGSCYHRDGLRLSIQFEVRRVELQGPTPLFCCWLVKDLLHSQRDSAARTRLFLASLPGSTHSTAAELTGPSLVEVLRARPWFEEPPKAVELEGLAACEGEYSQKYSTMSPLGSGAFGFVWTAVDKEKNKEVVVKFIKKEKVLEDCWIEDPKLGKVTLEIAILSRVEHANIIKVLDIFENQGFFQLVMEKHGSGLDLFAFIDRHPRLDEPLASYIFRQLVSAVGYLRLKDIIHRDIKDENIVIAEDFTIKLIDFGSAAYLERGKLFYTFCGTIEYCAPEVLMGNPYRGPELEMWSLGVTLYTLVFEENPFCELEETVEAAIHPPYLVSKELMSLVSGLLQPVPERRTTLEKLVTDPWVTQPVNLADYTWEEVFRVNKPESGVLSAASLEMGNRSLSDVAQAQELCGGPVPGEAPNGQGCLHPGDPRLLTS

MAPK10 (human) = MAPK10 (human) (UniProt P53779)
CDK2 CCNE1 (human) = CDK2 CCNE1 (human) (UniProt P24941+P24864)
CAMK2G (human) = CAMK2G (human) (UniProt Q13555)
MAPK14 (human) = MAPK14 (human) (UniProt Q16539)
Chain of MAPK14 (human) (Q16539 whole entry, looked up): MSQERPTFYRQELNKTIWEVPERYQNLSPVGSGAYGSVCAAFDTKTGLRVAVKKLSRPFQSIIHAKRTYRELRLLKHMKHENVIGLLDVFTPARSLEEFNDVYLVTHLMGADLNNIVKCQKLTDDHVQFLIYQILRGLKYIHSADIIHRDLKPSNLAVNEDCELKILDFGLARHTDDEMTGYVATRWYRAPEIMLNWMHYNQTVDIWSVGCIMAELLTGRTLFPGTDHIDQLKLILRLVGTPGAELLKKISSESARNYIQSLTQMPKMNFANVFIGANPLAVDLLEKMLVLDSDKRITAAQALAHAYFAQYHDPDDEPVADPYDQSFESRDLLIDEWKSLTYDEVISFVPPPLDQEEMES

NEK3 (human) = NEK3 (human) (UniProt P51956)
ULK1 (human) = ULK1 (human) (UniProt O75385)
PRKCA (human) = PRKCA (human) (UniProt P17252)
NEK11 (human) = NEK11 (human) (UniProt Q8NG66)
DYRK4 (human) = DYRK4 (human) (UniProt Q9NR20)
Chain of DYRK4 (human) (Q9NR20 whole entry, looked up): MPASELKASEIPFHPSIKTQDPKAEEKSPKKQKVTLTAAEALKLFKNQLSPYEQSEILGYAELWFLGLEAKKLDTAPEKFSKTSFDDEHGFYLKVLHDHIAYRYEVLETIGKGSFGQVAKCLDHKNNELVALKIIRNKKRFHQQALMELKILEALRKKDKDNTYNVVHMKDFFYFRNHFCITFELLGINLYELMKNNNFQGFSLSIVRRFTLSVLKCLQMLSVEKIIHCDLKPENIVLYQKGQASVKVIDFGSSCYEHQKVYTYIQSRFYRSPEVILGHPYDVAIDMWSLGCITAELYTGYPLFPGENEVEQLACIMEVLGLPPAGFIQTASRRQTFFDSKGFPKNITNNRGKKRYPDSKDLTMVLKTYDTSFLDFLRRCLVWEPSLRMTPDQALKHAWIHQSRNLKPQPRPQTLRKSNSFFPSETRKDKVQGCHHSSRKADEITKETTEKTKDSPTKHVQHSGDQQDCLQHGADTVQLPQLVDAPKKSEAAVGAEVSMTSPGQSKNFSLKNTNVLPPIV

ROCK2 (human) = ROCK2 (human) (UniProt O75116)
Chain of ROCK2 (human) (O75116 whole entry, looked up): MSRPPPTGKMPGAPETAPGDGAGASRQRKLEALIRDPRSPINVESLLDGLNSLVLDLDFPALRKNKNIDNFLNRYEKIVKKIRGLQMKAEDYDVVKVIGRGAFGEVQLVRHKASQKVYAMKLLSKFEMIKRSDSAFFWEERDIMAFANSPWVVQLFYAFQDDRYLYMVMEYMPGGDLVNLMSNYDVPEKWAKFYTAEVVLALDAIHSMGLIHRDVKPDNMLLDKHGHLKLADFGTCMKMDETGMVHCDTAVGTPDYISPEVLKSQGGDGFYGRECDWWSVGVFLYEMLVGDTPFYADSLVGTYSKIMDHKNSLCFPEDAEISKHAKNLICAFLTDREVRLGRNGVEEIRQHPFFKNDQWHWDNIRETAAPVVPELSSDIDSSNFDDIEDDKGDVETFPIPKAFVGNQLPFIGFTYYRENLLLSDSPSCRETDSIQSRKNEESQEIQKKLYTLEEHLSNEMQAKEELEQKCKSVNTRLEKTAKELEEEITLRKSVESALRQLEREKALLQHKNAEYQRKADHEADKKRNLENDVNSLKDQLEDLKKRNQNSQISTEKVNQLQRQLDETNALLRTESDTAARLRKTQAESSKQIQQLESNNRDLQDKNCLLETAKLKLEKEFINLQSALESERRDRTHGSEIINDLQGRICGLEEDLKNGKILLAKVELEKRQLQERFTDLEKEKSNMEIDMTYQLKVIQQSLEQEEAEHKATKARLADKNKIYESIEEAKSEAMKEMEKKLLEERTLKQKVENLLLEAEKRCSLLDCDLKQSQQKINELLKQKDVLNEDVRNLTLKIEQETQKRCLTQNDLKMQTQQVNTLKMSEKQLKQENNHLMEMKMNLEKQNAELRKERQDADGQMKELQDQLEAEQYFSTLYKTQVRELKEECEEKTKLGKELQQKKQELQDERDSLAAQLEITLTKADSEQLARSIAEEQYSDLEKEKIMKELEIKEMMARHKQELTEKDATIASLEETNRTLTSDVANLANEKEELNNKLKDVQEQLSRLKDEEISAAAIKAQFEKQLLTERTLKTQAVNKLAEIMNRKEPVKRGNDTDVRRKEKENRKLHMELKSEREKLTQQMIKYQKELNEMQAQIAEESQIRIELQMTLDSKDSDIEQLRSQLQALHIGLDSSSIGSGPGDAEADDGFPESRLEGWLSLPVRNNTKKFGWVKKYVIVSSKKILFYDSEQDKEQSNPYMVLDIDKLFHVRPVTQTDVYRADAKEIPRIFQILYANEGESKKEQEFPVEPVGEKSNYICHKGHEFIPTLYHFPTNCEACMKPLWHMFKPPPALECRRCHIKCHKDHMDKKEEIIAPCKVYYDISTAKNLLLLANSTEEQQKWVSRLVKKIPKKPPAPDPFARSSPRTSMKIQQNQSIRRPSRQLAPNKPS

RPS6KA6 KD1 KD2 (human) = RPS6KA6 KD1 KD2 (human) (UniProt Q9UK32)
GRK6 (human) = GRK6 (human) (UniProt P43250)
CSF1R (human) = CSF1R (human) (UniProt P07333)
RPS6KA5 KD2 (human) = RPS6KA5 KD2 (human) (UniProt O75582)
Chain of RPS6KA5 KD2 (human) (O75582 whole entry, looked up): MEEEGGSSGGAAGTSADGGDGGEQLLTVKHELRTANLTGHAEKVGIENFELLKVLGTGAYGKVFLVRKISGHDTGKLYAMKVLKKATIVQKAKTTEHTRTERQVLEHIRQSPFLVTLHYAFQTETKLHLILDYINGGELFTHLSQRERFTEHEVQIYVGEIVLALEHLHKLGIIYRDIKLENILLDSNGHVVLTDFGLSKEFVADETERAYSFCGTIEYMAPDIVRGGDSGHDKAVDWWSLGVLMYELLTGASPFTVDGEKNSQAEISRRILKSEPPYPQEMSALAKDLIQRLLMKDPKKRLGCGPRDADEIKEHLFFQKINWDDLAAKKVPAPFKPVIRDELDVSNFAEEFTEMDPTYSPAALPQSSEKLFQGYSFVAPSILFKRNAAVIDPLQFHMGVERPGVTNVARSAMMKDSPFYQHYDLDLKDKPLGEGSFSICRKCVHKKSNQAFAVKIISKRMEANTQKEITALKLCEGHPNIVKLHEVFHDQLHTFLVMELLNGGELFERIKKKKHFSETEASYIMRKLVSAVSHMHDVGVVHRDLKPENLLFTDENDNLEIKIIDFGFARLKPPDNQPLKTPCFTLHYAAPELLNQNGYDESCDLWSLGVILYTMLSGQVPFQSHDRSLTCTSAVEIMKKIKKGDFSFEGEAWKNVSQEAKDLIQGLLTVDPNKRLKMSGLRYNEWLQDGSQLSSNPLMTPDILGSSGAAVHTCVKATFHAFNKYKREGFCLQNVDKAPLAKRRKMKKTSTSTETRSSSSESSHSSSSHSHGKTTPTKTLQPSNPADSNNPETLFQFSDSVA

MAPK11 (human) = MAPK11 (human) (UniProt Q15759)
STK16 (human) = STK16 (human) (UniProt O75716)
PDPK1 (human) = PDPK1 (human) (UniProt O15530)
MAP3K14 (human) = MAP3K14 (human) (UniProt Q99558)

COc1cc2c(cc1OC)-c1[nH]nc(Nc3cccc(F)c3)c1C2
residual activity (CDK6 CCND3 (human)): 99.5% | residual activity (NEK9 (human)): 102% | residual activity (PIM1 (human)): 97.3% | residual activity (MARK3 (human)): 69.9% | residual activity (SGK3 (human)): 92.7% | residual activity (PTK2B (human)): 98% | residual activity (HIPK1 (human)): 96.4% | residual activity (CAMK2A (human)): 95.6% | residual activity (MLTK (human)): 44.7% | residual activity (SGK2 (human)): 98.6% | residual activity (MAP3K2 (human)): 84.5% | residual activity (STK11 (human)): 104% | residual activity (KDR (human)): 98.7% | residual activity (FGFR1 (human)): 99.2% | residual activity (JAK3 JH1 JH2 (human)): 98.6% | residual activity (TEC (human)): 95% | residual activity (INSRR (human)): 99.2% | residual activity (PRKACA (human)): 92.8% | residual activity (WNK3 (human)): 104% | residual activity (CSNK1D (human)): 99.9% | residual activity (PRKD1 (human)): 93.6% | residual activity (MYLK (human)): 102% | residual activity (EPHA5 (human)): 93.4% | residual activity (PASK (human)): 93.3% | residual activity (MAPK10 (human)): 102% | residual activity (CDK2 CCNE1 (human)): 88.6% | residual activity (CAMK2G (human)): 101% | residual activity (MAPK14 (human)): 94.3% | residual activity (NEK3 (human)): 97.1% | residual activity (ULK1 (human)): 103% | residual activity (PRKCA (human)): 99.2% | residual activity (NEK11 (human)): 98.9% | residual activity (DYRK4 (human)): 92.6% | residual activity (ROCK2 (human)): 95.2% | residual activity (RPS6KA6 KD1 KD2 (human)): 93.6% | residual activity (GRK6 (human)): 89.4% | residual activity (CSF1R (human)): 20% | residual activity (RPS6KA5 KD2 (human)): 96% | residual activity (MAPK11 (human)): 83% | residual activity (STK16 (human)): 96.8% | residual activity (PDPK1 (human)): 95.9% | residual activity (MAP3K14 (human)): 105%

O=C1NC(=O)c2c1c1c3ccccc3[nH]c1c1[nH]c3cc(Br)ccc3c21
residual activity (CDK6 CCND3 (human)): 40.2% | residual activity (NEK9 (human)): 83.6% | residual activity (PIM1 (human)): 8.84% | residual activity (MARK3 (human)): 57.3% | residual activity (SGK3 (human)): 97.2% | residual activity (PTK2B (human)): 79.5% | residual activity (HIPK1 (human)): 98.2% | residual activity (CAMK2A (human)): 78.3% | residual activity (MLTK (human)): 88.8% | residual activity (SGK2 (human)): 68.5% | residual activity (MAP3K2 (human)): 100% | residual activity (STK11 (human)): 90.2% | residual activity (KDR (human)): 67.9% | residual activity (FGFR1 (human)): 85.3% | residual activity (JAK3 JH1 JH2 (human)): 77% | residual activity (TEC (human)): 105% | residual activity (INSRR (human)): 85.8% | residual activity (PRKACA (human)): 103% | residual activity (WNK3 (human)): 92.3% | residual activity (CSNK1D (human)): 96.9% | residual activity (PRKD1 (human)): 51.9% | residual activity (MYLK (human)): 85.3% | residual activity (EPHA5 (human)): 90.5% | residual activity (PASK (human)): 86.3% | residual activity (MAPK10 (human)): 105% | residual activity (CDK2 CCNE1 (human)): 74.9% | residual activity (CAMK2G (human)): 99.5% | residual activity (MAPK14 (human)): 90.6% | residual activity (NEK3 (human)): 88.3% | residual activity (ULK1 (human)): 99.2% | residual activity (PRKCA (human)): 72.5% | residual activity (NEK11 (human)): 109% | residual activity (DYRK4 (human)): 86% | residual activity (ROCK2 (human)): 72.7% | residual activity (RPS6KA6 KD1 KD2 (human)): 32.4% | residual activity (GRK6 (human)): 108% | residual activity (CSF1R (human)): 96% | residual activity (RPS6KA5 KD2 (human)): 76.1% | residual activity (MAPK11 (human)): 93.6% | residual activity (STK16 (human)): 87.2% | residual activity (PDPK1 (human)): 66.1% | residual activity (MAP3K14 (human)): 101%
